Results: US20020111355A1, “Cyclic urea and cyclic amide derivatives” (American Home Products Corporation, priority 1999, published 2002)

Legend:
[1] = tested on: rat uterine decidualization; experiment: Rat decidualization assay; conditions: average over dose-response curves; decidual response; s.c.
T47D cells = experiment: T47D cell proliferation assay (BrdU incorporation); type: cell-based; conditions: Homo sapiens, decrease in trimegestone induced BrdU incorporation (0.03 nM trimegestone), individual studies
Procedure: 3. T47D Cell Proliferation Assay
The objective of this assay is the determination of progestational and antiprogestational potency by using a cell proliferation assay in T47D cells. A compound's effect on DNA synthesis in T47D cells is measured.
DMEM:F12 (1:1) (GIBCO, BRL) supplemented with 10% (v/v) fetal bovine serum (not heat-inactivated), 100 U/ml penicillin, […], and 2 mM GlutaMax (GIBCO, BRL).
Minimum Essential Medium (MEM) (#51200-038GIBCO, BRL) phenol red-free supplemented with 0.5% charcoal stripped fetal bovine serum, 100 U/ml penicillin, […] streptomycin, and 2 mM GlutaMax (GIBCO, BRL). […]
At the end of BrdU labeling, the medium is removed and BrdU incorporation is measured using a cell proliferation ELISA kit (#RPN 250, Amersham Life Science) according to manufacturer's instructions. […] Then 25 μl of 1 M sulfuric acid is added to each well to stop color reaction and optical density is read in a plate reader at 450 nm within 5 min.
Square root-transformed data are used for analysis of variance and nonlinear dose response curve fitting for both agonist and antagonist modes. […] EC50 or IC50 values are calculated from the retransformed values. […]

average EC50 [1] | Structure (SMILES) | also measured
0.10 mg/kg. s.c. | C#C[C@]1(O)CC[C@H]2[C@@H]3CCC4=CC(=O)CC[C@@H]4[C@H]3C(=C)C[C@@]21CC [3-Ketodesogestrel] | –
– | CC1(C)OC(=O)Nc2ncc(-c3cccc(Cl)c3)cc21 [Example 4, 6-(3-Chloro-phenyl)-4,4-dimethyl-1,4-dihydro-3-oxa-1,8-diaza-naphthalene-2-one] | melting point: 214 to 215 °C
– | CC#C[C@]1(O)CC[C@H]2[C@@H]3CCC4=CC(=O)CCC4=C3[C@@H](c3ccc(N(C)C)cc3)C[C@@]21C [RU486] | IC50 (T47D cells): 0.011 nM
0.10 mg/kg. s.c. | C#C[C@]1(O)CC[C@H]2[C@@H]3CCC4=CC(=O)CC[C@@H]4[C@H]3CC[C@@]21CC [Levonorgestrel] | –
